Measurements from patent publication US8530520B2, “Cycloalkyl-dione derivatives and methods of their use” (The Trustees Of The University Of Pennsylvania, priority 2011, dated 2013).

Target: T1, human TP receptor (Homo sapiens, UniProt P21731)
T1 sequence (P21731 1-343): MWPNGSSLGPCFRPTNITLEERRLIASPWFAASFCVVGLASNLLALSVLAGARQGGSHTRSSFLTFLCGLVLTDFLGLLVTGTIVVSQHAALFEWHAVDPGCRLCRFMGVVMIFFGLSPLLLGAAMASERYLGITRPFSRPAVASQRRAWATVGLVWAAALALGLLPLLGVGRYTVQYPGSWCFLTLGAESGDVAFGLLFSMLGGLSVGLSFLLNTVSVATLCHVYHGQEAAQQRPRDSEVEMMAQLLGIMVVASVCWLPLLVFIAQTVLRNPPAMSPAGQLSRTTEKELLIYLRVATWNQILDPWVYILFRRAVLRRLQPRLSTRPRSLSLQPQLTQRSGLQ
Assay: biochemical

Row | IC50 [µM] | SMILES
1 | 0.331 | O=S(=O)(NCCc1cccc(CCc2nnn[nH]2)c1)c1ccc(Cl)cc1 [Compound 60]
2 | > 10 | O=S(=O)(NCCc1cccc(CCCO)c1)c1ccc(Cl)cc1 [Compound 59]
3 | 11.4 | O=C1CCC(O)=C1Cc1cccc(CCNS(=O)(=O)c2ccc(Cl)cc2)c1 [Compound 50, 4-Chloro-N-(3-((2-hydroxy-5-oxocyclopent-1-en-1-yl)methyl)phenethyl)benzenesulfonamide]
4 | 0.328 | CC1=C(O)C(Cc2cccc(CCNS(=O)(=O)c3ccc(Cl)cc3)c2)CC1=O (stereo not drawn) [Compound 42, 4-Chloro-N-(3-((2-hydroxy-3-methyl-4-oxocyclopent-2-en-1-yl)methyl)phenethyl)-benzenesulfonamide]
5 | 0.203 | O=C1C=C(O)C(Cc2cccc(CCNS(=O)(=O)c3ccc(Cl)cc3)c2)C1 (stereo not drawn) [Compound 41, 4-Chloro-N-(3-((2-hydroxy-4-oxocyclopent-2-en-1-yl)methyl)phenethyl)benzenesulfonamide]
6 | 0.359 | O=c1c(O)c(NCc2cccc(CCNS(=O)(=O)c3ccc(Cl)cc3)c2)c1=O [Compound 61]
